molecular target: PLK1 (Homo sapiens, UniProt P53350); assay: PLK1 Inhibition Assay I (radioactive-phosphate incorporation); format: biochemical; details: Ki(app); PLK1 Inhibition Assay I or II (table does not say which)
Summary of the method: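 Ki(app) values came from non-linear regression of initial rates after background subtraction, with phosphopeptide measured by phosphocellulose filter binding and scintillation counting. PLK1 at 2 nM was preincubated with compound (typically from 10 μM, 2-fold dilutions) for 10 min, then run 240 min at 25° C with 350 μM [γ-33P]ATP and 450 μM peptide substrate in HEPES pH 7.5 buffer.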

Sequence of PLK1 (P53350 whole entry): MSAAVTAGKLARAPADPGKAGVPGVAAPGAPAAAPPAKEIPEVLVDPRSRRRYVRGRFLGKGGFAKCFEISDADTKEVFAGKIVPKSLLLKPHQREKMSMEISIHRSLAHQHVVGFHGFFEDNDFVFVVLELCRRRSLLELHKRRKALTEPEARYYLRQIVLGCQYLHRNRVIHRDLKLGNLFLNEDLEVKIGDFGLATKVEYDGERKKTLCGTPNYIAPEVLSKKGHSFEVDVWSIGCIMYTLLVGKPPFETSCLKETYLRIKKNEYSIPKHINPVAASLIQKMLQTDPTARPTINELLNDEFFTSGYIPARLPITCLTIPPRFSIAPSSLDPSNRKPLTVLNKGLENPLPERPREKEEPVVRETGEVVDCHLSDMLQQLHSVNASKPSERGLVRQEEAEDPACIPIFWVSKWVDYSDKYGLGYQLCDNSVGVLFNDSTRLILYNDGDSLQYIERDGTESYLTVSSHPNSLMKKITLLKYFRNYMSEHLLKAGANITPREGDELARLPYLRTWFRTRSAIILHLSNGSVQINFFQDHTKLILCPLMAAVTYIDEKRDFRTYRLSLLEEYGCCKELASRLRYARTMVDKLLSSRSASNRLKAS

Compound | Ki
CN(Cc1ccccc1)c1ncc(C#N)c(-c2c[nH]c3ncc(C(F)(F)F)cc23)n1 [Compound I-8, 2-(benzyl(methyl)amino)-4-(5-(trifluoromethyl)-1H-pyrrolo[2,3-b]pyridin-3-yl)pyrimidine-5-carbonitrile] | > 40 nM
COc1ccccc1Sc1ncc(C#N)c(-c2c[nH]c3ncc(C(F)(F)F)cc23)n1 [II-14, 2-(2-methoxyphenylthio)-4-(5-(trifluoromethyl)-1H-pyrrolo[2,3-b]pyridin-3-yl)pyrimidine-5-carbonitrile] | > 40 nM
N#Cc1cnc(NCc2ccc(-c3cccs3)cc2)nc1-c1c[nH]c2ncc(C(F)(F)F)cc12 [Compound I-54, 2-(4-(thiophen-2-yl)benzylamino)-4-(5-(trifluoromethyl)-1H-pyrrolo[2,3-b]pyridin-3-yl)pyrimidine-5-carbonitrile] | > 40 nM
N#Cc1cnc(NCc2ccccc2F)nc1-c1c[nH]c2ncc(C(F)(F)F)cc12 [Compound I-21, 2-(2-fluorobenzylamino)-4-(5-(trifluoromethyl)-1H-pyrrolo[2,3-b]pyridin-3-yl)pyrimidine-5-carbonitrile] | > 40 nM
CCN(CC)S(=O)(=O)c1ccc(C(C)Nc2ncc(C#N)c(-c3c[nH]c4ncc(C(F)(F)F)cc34)n2)cc1 (stereo not shown) [Compound I-181, 4-(1-(5-cyano-4-(5-(trifluoromethyl)-1H-pyrrolo[2,3-b]pyridin-3-yl)pyrimidin-2-ylamino)ethyl)-N,N-diethylbenzenesulfonamide] | 3 to 40 nM
COCC(C)Nc1ncc(C#N)c(-c2c[nH]c3ncc(C(F)(F)F)cc23)n1 (stereo not shown) [Compound I-82, 2-(1-methoxypropan-2-ylamino)-4-(5-(trifluoromethyl)-1H-pyrrolo[2,3-b]pyridin-3-yl)pyrimidine-5-carbonitrile] | 3 to 40 nM
N#Cc1cnc(NC[C@H]2CCCN2)nc1-c1c[nH]c2ncc(C(F)(F)F)cc12 [Compound I-88, 2-((R)-pyrrolidin-2-ylmethylamino)-4-(5-(trifluoromethyl)-1H-pyrrolo[2,3-b]pyridin-3-yl)pyrimidine-5-carbonitrile] | > 40 nM
CC(Nc1ncc(C#N)c(-c2c[nH]c3ncc(C(F)(F)F)cc23)n1)C1CN(C(=O)C(C)(C)O)C1 (stereo not shown) [Compound I-221, 2-(1-(1-(2-hydroxy-2-methylpropanoyl)azetidin-3-yl)ethylamino)-4-(5-(trifluoromethyl)-1H-pyrrolo[2,3-b]pyridin-3-yl)pyrimidine-5-carbonitrile] | 3 to 40 nM
N#Cc1cnc(N[C@H]2CCOC2)nc1-c1c[nH]c2ncc(C(F)(F)F)cc12 [Compound I-78, 2-((S)-tetrahydrofuran-3-ylamino)-4-(5-(trifluoromethyl)-1H-pyrrolo[2,3-b]pyridin-3-yl)pyrimidine-5-carbonitrile] | 3 to 40 nM
N#Cc1cnc(NC2(C(=O)NCC(F)(F)F)CCCC2)nc1-c1c[nH]c2ncc(Cl)cc12 [IA-7, 1-(4-(5-chloro-1H-pyrrolo[2,3-b]pyridin-3-yl)-5-cyanopyrimidin-2-ylamino)-N-(2,2,2-trifluoroethyl)cyclopentanecarboxamide] | > 40 nM

Further lines, results first:

Ki | Compound
3 to 40 nM | CCC1(O)CCN(c2ccc(C(C)Nc3ncc(C#N)c(-c4c[nH]c5ncc(C(F)(F)F)cc45)n3)cn2)CC1 (stereo not shown) [Compound I-197, 2-(1-(6-(4-ethyl-4-hydroxypiperidin-1-yl)pyridin-3-yl)ethylamino)-4-(5-(trifluoromethyl)-1H-pyrrolo[2,3-b]pyridin-3-yl)pyrimidine-5-carbonitrile]
3 to 40 nM | CN(C)c1ccc(CNc2ncc(C#N)c(-c3c[nH]c4ncc(C(F)(F)F)cc34)n2)cc1 [Compound I-59, 2-(4-(dimethylamino)benzylamino)-4-(5-(trifluoromethyl)-1H-pyrrolo[2,3-b]pyridin-3-yl)pyrimidine-5-carbonitrile]
< 3 nM | C[C@@H](Nc1ncc(C#N)c(-c2c[nH]c3ncc(C(F)(F)F)cc23)n1)[C@H]1CC[C@H](NC(=O)CN)CC1 [Compound I-264, 2-amino-N-((1R,4r)-4-((1R)-1-(5-cyano-4-(5-(trifluoromethyl)-1H-pyrrolo[2,3-b]pyridin-3-yl)pyrimidin-2-ylamino)ethyl)cyclohexyl)acetamide]
< 3 nM | C[C@@H](Nc1ncc(C#N)c(-c2c[nH]c3ncc(C(F)(F)F)cc23)n1)c1ccc(CO)cc1 [Compound I-185, 2-((R)-1-(4-(hydroxymethyl)phenyl)ethylamino)-4-(5-(trifluoromethyl)-1H-pyrrolo[2,3-b]pyridin-3-yl)pyrimidine-5-carbonitrile]
< 3 nM | CC(C)[C@@H](N)C(=O)N1CCC([C@@H](C)Nc2ncc(C#N)c(-c3c[nH]c4ncc(C(F)(F)F)cc34)n2)CC1 [Compound I-229, 2-((R)-1-(1-((R)-2-amino-3-methylbutanoyl)piperidin-4-yl)ethylamino)-4-(5-(trifluoromethyl)-1H-pyrrolo[2,3-b]pyridin-3-yl)pyrimidine-5-carbonitrile]
3 to 40 nM | C[C@@H](Nc1ncc(C#N)c(-c2c[nH]c3ncc(C(F)(F)F)cc23)n1)c1ccc(N[C@H]2CCN(C)C2)nc1 [Compound I-280, 2-(1-(6-((S)-1-methylpyrrolidin-3-ylamino)pyridin-3-yl)ethylamino)-4-(5-(trifluoromethyl)-1H-pyrrolo[2,3-b]pyridin-3-yl)pyrimidine-5-carbonitrile]
3 to 40 nM | C[C@@H](Nc1ncc(C#N)c(-c2c[nH]c3ncc(C(F)(F)F)cc23)n1)c1ccc(OC2CCN(C)CC2)cc1 [Compound I-154, 2-((R)-1-(4-(1-methylpiperidin-4-yloxy)phenyl)ethylamino)-4-(5-(trifluoromethyl)-1H-pyrrolo[2,3-b]pyridin-3-yl)pyrimidine-5-carbonitrile]
3 to 40 nM | CN1CCC(Nc2ncc(C#N)c(-c3c[nH]c4ncc(C(F)(F)F)cc34)n2)CC1 [Compound I-63, 2-(1-methylpiperidin-4-ylamino)-4-(5-(trifluoromethyl)-1H-pyrrolo[2,3-b]pyridin-3-yl)pyrimidine-5-carbonitrile]
3 to 40 nM | CCC(CO)Nc1ncc(C#N)c(-c2c[nH]c3ncc(C(F)(F)F)cc23)n1 (stereo not shown) [Compound I-39, 2-(1-hydroxybutan-2-ylamino)-4-(5-(trifluoromethyl)-1H-pyrrolo[2,3-b]pyridin-3-yl)pyrimidine-5-carbonitrile]
< 3 nM | CC(Nc1ncc(C#N)c(-c2c[nH]c3ncc(C(F)(F)F)cc23)n1)C1CCN(C(=O)CN)CC1 (stereo not shown) [Compound I-188, 2-(1-(1-(2-aminoacetyl)piperidin-4-yl)ethylamino)-4-(5-(trifluoromethyl)-1H-pyrrolo[2,3-b]pyridin-3-yl)pyrimidine-5-carbonitrile]
< 3 nM | C[C@@H](Nc1ncc(C#N)c(-c2c[nH]c3ncc(C(F)(F)F)cc23)n1)C1CCN(C(=O)[C@H]2C[C@H](O)CN2)CC1 [Compound I-263, 2-((R)-1-(1-((2R,4S)-4-hydroxypyrrolidine-2-carbonyl)piperidin-4-yl)ethylamino)-4-(5-(trifluoromethyl)-1H-pyrrolo[2,3-b]pyridin-3-yl)pyrimidine-5-carbonitrile]
< 3 nM | CNCC(=O)N1CCC(C(C)Nc2ncc(C#N)c(-c3c[nH]c4ncc(C(F)(F)F)cc34)n2)CC1 (stereo not shown) [Compound I-189, 2-(1-(1-(2-(methylamino)acetyl)piperidin-4-yl)ethylamino)-4-(5-(trifluoromethyl)-1H-pyrrolo[2,3-b]pyridin-3-yl)pyrimidine-5-carbonitrile]

Reference: patent publication US8530489B2 (Vertex Pharmaceuticals Incorporated, priority 2006, dated 2013)
